Data from patent publication EP4603105A1, “PHARMACEUTICAL COMPOSITION CONTAINING CYCLIC COMPOUND HAVING SELECTIVE KRAS INHIBITORY EFFECT AGAINST HRAS AND NRAS” (CHUGAI SEIYAKU KABUSHIKI KAISHA, priority 2022, dated 2024).

Tests used:
[1] = target: GDP-bound KRAS wild-type protein (Homo sapiens, UniProt P01116); experiment: Binding to KRAS by surface plasmon resonance (SPR), dissociation constant KD
Method in brief: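 Read-out is KD from 1:1 fitting of single-cycle kinetics sensorgrams, blank-cycle and reference-surface corrected. Proteins were GDP-loaded, biotinylated Avi-fusions freshly captured each cycle at roughly 100–300 RU. Runs were at 30°C in HBS pH 7.4 with MgCl2, GDP and 4% DMSO.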

[2] = target: GDP-bound NRAS wild-type protein (Homo sapiens, UniProt P01111); experiment: Binding to NRAS by surface plasmon resonance (SPR), KD and KD ratio to KRAS
Chain of GDP-bound NRAS wild-type protein (P01111 whole entry): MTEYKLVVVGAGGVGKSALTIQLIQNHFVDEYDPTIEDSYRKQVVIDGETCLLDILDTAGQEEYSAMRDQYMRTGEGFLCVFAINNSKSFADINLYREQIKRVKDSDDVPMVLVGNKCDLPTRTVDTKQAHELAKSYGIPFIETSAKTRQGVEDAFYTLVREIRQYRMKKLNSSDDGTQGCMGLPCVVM
Method in brief: (§1)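 GDP-bound biotin-Avi RAS captured at ~100–300 RU, 30°C, pH 7.4 HBS containing 10 µM GDP, 10 mM MgCl2, 1 mM DTT, 0.01% Tween 20 and 4% DMSO. KD by 1:1 fitting.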

HRAS wild-type protein = HRAS wild-type protein (Homo sapiens, UniProt P01112); experiment: Binding to HRAS by surface plasmon resonance (SPR), KD and KD ratio to KRAS
Chain of HRAS wild-type protein (P01112 whole entry): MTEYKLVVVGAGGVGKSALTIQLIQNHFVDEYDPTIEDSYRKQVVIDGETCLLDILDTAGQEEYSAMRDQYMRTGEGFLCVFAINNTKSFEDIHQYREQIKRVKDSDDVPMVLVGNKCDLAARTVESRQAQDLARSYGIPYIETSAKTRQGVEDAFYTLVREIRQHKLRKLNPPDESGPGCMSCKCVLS
Method in brief: as §1

[3] = system: human lung cancer strain NCI-H441; type: cell-based
Method in brief: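 Readout: […] after the ATP-based reagent. Compound: serial dilutions in dimethyl sulfoxide.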

[4] = ratio of KD for GDP-bound NRAS wild-type protein to KD for KRAS
[5] = ratio of KD for HRAS wild-type protein to KD for KRAS

Chain of GDP-bound KRAS wild-type protein (P01116 1-188 isoform P01116-2): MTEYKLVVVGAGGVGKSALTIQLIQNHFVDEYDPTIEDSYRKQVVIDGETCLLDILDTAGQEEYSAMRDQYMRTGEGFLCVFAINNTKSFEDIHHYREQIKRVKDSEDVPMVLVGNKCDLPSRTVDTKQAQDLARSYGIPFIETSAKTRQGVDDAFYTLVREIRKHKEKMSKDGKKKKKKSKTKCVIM

SMILES: CCC[C@H]1C(=O)N[C@@H]([C@@H](C)CC)C(=O)N(C2CC2)CC(=O)N(C)[C@H]2C/C=C\CCN(C2=O)[C@@H](CC2CCCCC2)C(=O)N(C)CC(=O)N[C@@H](CCc2ccc(C(F)(F)F)c(OC)c2)C(=O)N2C[C@H](OCC)C[C@H]2C(=O)N(C)C2(CCC2)C(=O)N(C)[C@@H](C(CC)CC)C(=O)N(C)[C@H](C(=O)N(C)C)CC(=O)N1C [PP2337]
- Kd ([1]; Single Cycle Kinetics, 1:1 binding model): 32 nM
- NRAS /KRAS ([2]; ratio of the KD value with respect to GDP-bound NRAS wild-type protein to the KD value with respect to KRAS): A (a compound having 10 or more and less than 20 is denoted as A)
- HRAS /KRAS (HRAS wild-type protein; ratio of the KD value with respect to HRAS wild-type protein to the KD value with respect to KRAS): A (a compound having 10 or more and less than 20 is denoted as A)
- IC50 [3]: 33.9 nM

SMILES: CCO[C@@H]1C[C@H]2C(=O)NC3(CC(C)(C)C3)C(=O)N(C)[C@@H](C3CCCC3)C(=O)N(C)[C@H](C(=O)N(C)C)CC(=O)N(C)[C@H]3CCCCC/C=C/c4ccc(cc4)C[C@@H](C(=O)N(C)CC(=O)N[C@@H](CCc4ccc(Cl)c(Cl)c4)C(=O)N2C1)N1CC/C=C\C[C@@H](C1=O)N(C)C(=O)CN(C)C(=O)[C@H]([C@@H](C)CC)NC3=O [PP3057]
- Kd ([1]; 1:1 binding model): 0.17 nM
- NRAS /KRAS [2, 4]: A (a compound having 10 or more and less than 20 is denoted as A)
- HRAS /KRAS (HRAS wild-type protein; [5]): B (a compound having 3 or more and less than 10 is denoted as B)
- IC50 [3]: 8.5 nM

SMILES: CCO[C@@H]1C[C@H]2C(=O)NC3(CC(C)(C)C3)C(=O)N(C)[C@@H](C3CCCC3)C(=O)N(C)[C@H](C(=O)N(C)C)CC(=O)N(C)[C@@H]([C@@H](C)OC)C(=O)N[C@@H]([C@@H](C)CC)C(=O)N(C)CC(=O)N(C)[C@H]3C/C=C\CCN(C3=O)[C@@H](Cc3ccc(C)cc3)C(=O)N(C)CC(=O)N[C@@H](CCc3ccc(C(F)(F)F)c(OC)c3)C(=O)N2C1 [PP3207]
- Kd ([1]; 1:1 binding model): 0.059 nM
- NRAS /KRAS [2, 4]: A (a compound having 10 or more and less than 20 is denoted as A)
- HRAS /KRAS (HRAS wild-type protein; [5]): A (a compound having 10 or more and less than 20 is denoted as A)
- IC50 [3]: 5.6 nM

SMILES: CCO[C@@H]1C[C@H]2C(=O)NC3(CC(C)(C)C3)C(=O)N(C)[C@@H](C(CC)CC)C(=O)N(C)[C@H](C(=O)N(C)C)CC(=O)N(C)[C@H]3CC/C=C/c4ccc(cc4)C[C@@H](C(=O)N(C)CC(=O)N[C@@H](CCc4ccc(Cl)c(Cl)c4)C(=O)N2C1)N1CC/C=C\C[C@@H](C1=O)N(C)C(=O)CN(C)C(=O)[C@H]([C@@H](C)CC)NC3=O [PP2589]
- Kd ([1]; 1:1 binding model): 0.45 nM
- NRAS /KRAS [2, 4]: AA (a compound having 20 or more is denoted as AA)
- HRAS /KRAS (HRAS wild-type protein; [5]): A (a compound having 10 or more and less than 20 is denoted as A)
- IC50 [3]: 74.1 nM

SMILES: CCO[C@@H]1C[C@H]2C(=O)NC3(CCC3)C(=O)N(C)[C@@H](C3CCCC3)C(=O)N(C)[C@H](C(=O)N(C)C)CC(=O)N(C)[C@@H](CC(C)C)C(=O)N[C@@H]([C@@H](C)CC)C(=O)N(C)CC(=O)N(C)[C@H]3CC(C)=CCN(C3=O)[C@@H](Cc3ccc(C(F)(F)F)cc3)C(=O)N(C)CC(=O)N[C@@H](CCc3cc(F)c(C(F)(F)F)c(F)c3)C(=O)N2C1 [PP1032]
- Kd ([1]; Single Cycle Kinetics): 0.38 nM
- NRAS /KRAS [2, 4]: C (A compound having a KD ratio of 0.1 or more and less than 3 is denoted as C)
- HRAS /KRAS (HRAS wild-type protein; [5]): C (A compound having a KD ratio of 0.1 or more and less than 3 is denoted as C)
- IC50 [3]: 43.9 nM

SMILES: CCO[C@@H]1C[C@H]2C(=O)N(C)C3(CC(C)(C)C3)C(=O)N(C)[C@@H](C3CCCC3)C(=O)N(C)[C@H](C(=O)N(C)C)CC(=O)N(C)[C@H]3CCCCCc4ccc(cc4)C[C@@H](C(=O)N(C)CC(=O)N[C@@H](CCc4ccc(C(F)(F)F)c(OC)c4)C(=O)N2C1)N1CC/C=C\C[C@@H](C1=O)N(C)C(=O)CN(C)C(=O)[C@H]([C@@H](C)CC)NC3=O [PP3091]
- Kd ([1]; 1:1 binding model): 0.031 nM
- NRAS /KRAS [2, 4]: A (a compound having 10 or more and less than 20 is denoted as A)
- HRAS /KRAS (HRAS wild-type protein; [5]): B (a compound having 3 or more and less than 10 is denoted as B)
- IC50 [3]: 1.2 nM
